According to publication PMC12906832, “Transgenic Tobacco Plants Expressing Synthetic Peptides: A Functional and Structural Analysis for Pathogen Resistance” (Plant Biotechnology Journal, 2025):
No end group written: not given here.

Assays:
HEK293 cells = assay: MTT cell viability assay; format: cell-based, human; conditions: 24 h, concentrations up to 4× MIC99%, triplicate
Protocol: For details, please see section 1.2 of Supporting Information.
(§1) 1. Experimental Procedures
(§2) 1.1. Membrane permeabilization assay
(§3) Pseudomonas syringae pv. tabaci cells were grown till mid-logarithmic phase. The cells were […]
(§4) obtain a suspension containing 10^5 CFU/ml. 10µM of Propidium Iodide (Sigma Aldrich Co., St.
(§5) Louis, USA) was added to the cell suspension and incubated at room temperature, under shaking […]
(§6) fluorescence intensity was measured at 25 °C for 30 min at an excitation and emission wavelength of 535 nm and 617 nm respectively. After obtaining the fluorescence intensity of the stabilized cells, peptides were added at increasing concentrations, and the increase in fluorescence intensity was recorded. […]
(§7) HEK293 cell viability was monitored by MTT assay. […] Cell viability was then assessed by incubating the control and peptide treated cells using 100 µl of MTT (2mg/ml) for 3 h. The formazan crystals formed were dissolved in dimethyl sulfoxide (DMSO) and absorbance at 570 nm was recorded using SpectraMax M3 (Softmax Pro 6.3) multiplate reader. […] Cell viability was calculated using the equation: […]
1.3. […] A readseq program, (http://iubio.bio.indiana.edu/soft/molbio/readseq/) is used by the server that reads the protein sequences in standard formats like EMBL, FASTA, GCG or plain text format (Saha & Raghava, 2006). […]

[1] = Plant extract stability assay (RP-HPLC); format: in vitro ADME, Nicotiana tabacum; conditions: tobacco leaf extract (20% v/v) containing plant proteases; 1 mg peptide in 20% v/v tobacco leaf extract in 10 mM phosphate buffer pH 7.4, 37°C, stopped with 1% TFA, RP-HPLC C18 peak integration, mean ± SEM n = 3
Protocol: The stability of VR18 and KG18 in the presence of plant proteases present in plant leaf extract was monitored using a modified version of a previously reported protocol (Li et al. [2002]). Briefly, 1 g of 1‐month‐old tobacco leaf ( Nicotiana tabacum ) was crushed in liquid nitrogen, followed by extraction in 10 mM phosphate buffer (pH 7.4). The suspension was pelleted at 13500× g for 5 min, and the supernatant was collected. 1 mg of the respective peptide was added to a stock of 20% v/v plant extract in 10 mM phosphate buffer (pH 7.4) and incubated at 37°C. 100 μL of aliquots were withdrawn at appropriate time intervals, and the reaction was stopped using 1% trifluoroacetic acid (TFA). Plant extract (20% v/v) was used as a negative control. The aliquots were subjected to a LC‐20AT reverse phase HPLC system (SHIMADZU, Japan) equipped with a Phenomenix C18 column (250 × 10 mm, pore size 100 Å, particle size 5 μm) at room temperature, using acetonitrile and water with 0.1% TFA as the solvents. A flow rate of 1 mL/min was maintained. The percentage of peptide remaining in the plant extract at different time intervals was analysed by peak integration using […] software, and the area obtained was normalised with respect to the free peptide without the plant extract.

[2] = test system: Xanthomonas campestris pv. vesicatoria, X. campestris pv. campestris, X. oryzae pv. oryzae, Pseudomonas syringae pv. tabaci; conditions: 72 h
[3] = test system: Pseudomonas syringae pv. tabaci cells; assay: Membrane permeabilization assay (propidium iodide uptake); format: cell-based; conditions: within 30 min of treatment, 10 µM PI, 10 mM phosphate buffer pH 7.4, normalised to Polymyxin B, n = 3
Protocol: Pseudomonas syringae pv. tabaci cells were prepared and incubated with Propidium Iodide. The increase in fluorescence intensity was checked upon the addition of peptides. For details, please see section 1.1 of Supporting Information.
as §1, §2, §3, §4, §5
as §6, with “recorded. Normalization was done using measurement of cells treated with Polymyxin B that served as control.” for “recorded.”
as §7

Row | Substance | cytotoxic effect on HEK 293 cells (MTT) (HEK293 cells) | half-life [1] [min] | IC50 [2] [µM] | minimal inhibitory concentration (MIC99%) [2] [µM] | propidium iodide (PI) uptake [3]
1 | KNKSRVARGWGRKCPLFG [KG18] | no toxicity | > 60 | 2.75 to 5.5 | 3 to 10 | 
2 | Polymyxin B |  |  |  |  | maximum PI uptake
3 | VARGWGRKCPLFGKNKSR [VR18] | no toxicity | > 60 | 1.5 to 4.25 | 3 to 10 | 
